Measurements as given in ChEMBL document CHEMBL5375979, “Chemical, Biochemical, Cellular, and Physiological Characterization of Leucettinib-21, a Down Syndrome and Alzheimer's Disease Drug Candidate” (J Med Chem, 2023).

Key:
[1] = biological target: Dual specificity protein kinase CLK1 (Homo sapiens, UniProt P49759)
[2] = biological target: Dual specificity protein kinase CLK4 (Homo sapiens, UniProt Q9HAZ1)
[3] = biological target: Cyclin-dependent kinase 5 (Homo sapiens, UniProt Q00535)
Casein kinase I = assay type: protein assay, Homo sapiens
[4] = biological target: Dual specificity protein kinase CLK2 (Homo sapiens, UniProt P49760)
[5] = biological target: Dual specificity protein kinase CLK3 (Homo sapiens, UniProt P49761)
[6] = biological target: T1, Dual specificity tyrosine-phosphorylation-regulated kinase 3 (Homo sapiens, UniProt O43781)
T1 sequence (O43781 whole entry): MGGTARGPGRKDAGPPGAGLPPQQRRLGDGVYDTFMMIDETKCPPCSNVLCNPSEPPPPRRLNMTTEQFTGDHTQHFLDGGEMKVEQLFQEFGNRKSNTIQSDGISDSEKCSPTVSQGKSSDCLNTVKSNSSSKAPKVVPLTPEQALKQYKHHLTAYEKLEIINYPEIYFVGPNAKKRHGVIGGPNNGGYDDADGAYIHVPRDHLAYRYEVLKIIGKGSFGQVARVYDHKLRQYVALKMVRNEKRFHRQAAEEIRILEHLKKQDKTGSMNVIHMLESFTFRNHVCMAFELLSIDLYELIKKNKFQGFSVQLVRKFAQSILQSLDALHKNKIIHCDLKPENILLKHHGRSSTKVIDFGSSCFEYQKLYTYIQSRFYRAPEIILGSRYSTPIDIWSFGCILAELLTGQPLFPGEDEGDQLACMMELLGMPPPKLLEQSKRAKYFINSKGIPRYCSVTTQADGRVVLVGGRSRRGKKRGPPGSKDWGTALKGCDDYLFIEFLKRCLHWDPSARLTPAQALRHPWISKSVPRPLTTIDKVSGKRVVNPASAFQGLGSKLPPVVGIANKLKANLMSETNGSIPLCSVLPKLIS

[7] = biological target: T2, Dual specificity tyrosine-phosphorylation-regulated kinase 4 (Homo sapiens, UniProt Q9NR20)
T2 sequence (Q9NR20 whole entry): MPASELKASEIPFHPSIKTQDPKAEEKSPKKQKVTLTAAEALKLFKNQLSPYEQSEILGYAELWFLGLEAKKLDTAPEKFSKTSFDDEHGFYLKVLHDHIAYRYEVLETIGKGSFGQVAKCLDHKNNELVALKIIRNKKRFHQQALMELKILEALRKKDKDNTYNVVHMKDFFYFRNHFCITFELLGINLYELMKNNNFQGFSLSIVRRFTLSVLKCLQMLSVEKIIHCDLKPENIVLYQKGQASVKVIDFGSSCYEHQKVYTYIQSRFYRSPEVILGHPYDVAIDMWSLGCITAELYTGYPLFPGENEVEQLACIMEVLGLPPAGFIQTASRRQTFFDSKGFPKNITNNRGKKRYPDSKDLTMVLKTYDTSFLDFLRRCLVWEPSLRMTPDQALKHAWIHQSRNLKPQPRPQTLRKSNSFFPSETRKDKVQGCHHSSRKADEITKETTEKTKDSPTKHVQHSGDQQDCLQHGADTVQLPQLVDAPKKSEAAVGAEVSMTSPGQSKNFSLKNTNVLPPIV

[8] = biological target: Glycogen synthase kinase-3 (Homo sapiens, UniProt P49840+P49841); assay type: protein assay
[9] = biological target: Dual specificity tyrosine-phosphorylation-regulated kinase 1A (Homo sapiens, UniProt Q13627)
[10] = biological target: Dual specificity tyrosine-phosphorylation-regulated kinase 1B (Homo sapiens, UniProt Q9Y463)
[11] = biological target: T3, Dual specificity tyrosine-phosphorylation-regulated kinase 2 (Homo sapiens, UniProt Q92630)
T3 sequence (Q92630 whole entry): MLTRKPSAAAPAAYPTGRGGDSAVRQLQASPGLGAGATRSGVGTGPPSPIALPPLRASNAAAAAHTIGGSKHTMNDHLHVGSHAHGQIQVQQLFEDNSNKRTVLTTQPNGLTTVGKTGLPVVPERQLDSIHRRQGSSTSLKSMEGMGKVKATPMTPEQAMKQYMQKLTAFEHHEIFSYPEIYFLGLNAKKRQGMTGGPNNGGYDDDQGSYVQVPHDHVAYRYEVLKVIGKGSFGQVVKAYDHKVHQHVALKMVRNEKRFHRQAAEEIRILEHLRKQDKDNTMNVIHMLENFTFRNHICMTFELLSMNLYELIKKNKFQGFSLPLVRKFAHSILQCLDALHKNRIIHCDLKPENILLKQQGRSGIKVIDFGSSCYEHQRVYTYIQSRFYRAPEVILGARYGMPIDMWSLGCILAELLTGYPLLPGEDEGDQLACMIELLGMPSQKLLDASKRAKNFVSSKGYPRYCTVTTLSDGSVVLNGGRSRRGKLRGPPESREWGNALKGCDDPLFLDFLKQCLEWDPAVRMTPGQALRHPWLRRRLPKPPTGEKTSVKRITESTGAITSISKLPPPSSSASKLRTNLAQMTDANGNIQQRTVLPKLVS

Chain of Dual specificity protein kinase CLK2 (P49760 whole entry): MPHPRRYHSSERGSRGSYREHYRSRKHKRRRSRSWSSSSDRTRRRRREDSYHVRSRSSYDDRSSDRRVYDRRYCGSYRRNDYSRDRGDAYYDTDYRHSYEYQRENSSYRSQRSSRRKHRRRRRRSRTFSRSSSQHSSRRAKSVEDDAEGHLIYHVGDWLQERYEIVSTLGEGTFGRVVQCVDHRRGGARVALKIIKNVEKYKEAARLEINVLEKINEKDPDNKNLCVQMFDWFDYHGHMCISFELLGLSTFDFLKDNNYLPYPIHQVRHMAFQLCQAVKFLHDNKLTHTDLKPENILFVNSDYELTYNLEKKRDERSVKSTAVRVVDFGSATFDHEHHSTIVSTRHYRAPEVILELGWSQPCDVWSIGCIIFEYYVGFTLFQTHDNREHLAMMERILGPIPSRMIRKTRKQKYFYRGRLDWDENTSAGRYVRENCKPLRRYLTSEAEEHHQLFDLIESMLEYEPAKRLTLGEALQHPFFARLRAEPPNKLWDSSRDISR
Chain of Dual specificity protein kinase CLK4 (Q9HAZ1 whole entry): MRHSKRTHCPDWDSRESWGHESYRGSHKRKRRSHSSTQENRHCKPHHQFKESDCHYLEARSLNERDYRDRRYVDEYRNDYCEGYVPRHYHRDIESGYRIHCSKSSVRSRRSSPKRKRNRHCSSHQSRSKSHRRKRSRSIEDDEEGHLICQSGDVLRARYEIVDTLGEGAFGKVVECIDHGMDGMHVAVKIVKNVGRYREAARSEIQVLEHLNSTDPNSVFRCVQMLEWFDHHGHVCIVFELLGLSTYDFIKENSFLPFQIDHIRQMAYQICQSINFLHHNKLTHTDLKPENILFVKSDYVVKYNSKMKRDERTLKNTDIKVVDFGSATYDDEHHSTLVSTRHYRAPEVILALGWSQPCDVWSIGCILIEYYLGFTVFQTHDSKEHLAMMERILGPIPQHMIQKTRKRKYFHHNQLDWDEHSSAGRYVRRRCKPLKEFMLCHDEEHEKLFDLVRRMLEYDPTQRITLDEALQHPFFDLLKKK
Chain of Dual specificity protein kinase CLK3 (P49761 whole entry): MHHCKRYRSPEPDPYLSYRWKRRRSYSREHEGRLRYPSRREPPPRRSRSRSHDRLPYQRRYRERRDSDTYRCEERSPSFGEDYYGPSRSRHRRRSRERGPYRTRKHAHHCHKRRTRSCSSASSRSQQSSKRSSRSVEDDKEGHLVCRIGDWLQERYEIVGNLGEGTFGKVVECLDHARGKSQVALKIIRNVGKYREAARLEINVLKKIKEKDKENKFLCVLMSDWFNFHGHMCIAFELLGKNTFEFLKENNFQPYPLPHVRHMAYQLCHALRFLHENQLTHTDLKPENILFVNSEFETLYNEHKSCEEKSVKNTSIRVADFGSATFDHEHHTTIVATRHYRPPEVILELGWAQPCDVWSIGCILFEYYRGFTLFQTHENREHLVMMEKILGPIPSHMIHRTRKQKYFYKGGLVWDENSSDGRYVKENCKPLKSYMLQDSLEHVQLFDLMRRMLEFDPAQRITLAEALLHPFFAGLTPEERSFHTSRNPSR
Chain of Cyclin-dependent kinase 5 (Q00535 whole entry): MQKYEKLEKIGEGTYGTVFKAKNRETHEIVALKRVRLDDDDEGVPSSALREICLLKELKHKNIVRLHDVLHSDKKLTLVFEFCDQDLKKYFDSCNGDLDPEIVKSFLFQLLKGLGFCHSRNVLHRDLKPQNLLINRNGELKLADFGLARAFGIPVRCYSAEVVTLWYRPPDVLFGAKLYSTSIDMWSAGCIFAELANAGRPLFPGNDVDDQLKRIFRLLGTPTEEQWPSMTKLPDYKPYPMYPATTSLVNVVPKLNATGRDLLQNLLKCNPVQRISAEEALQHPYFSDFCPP
Chain of Dual specificity protein kinase CLK1 (P49759 whole entry): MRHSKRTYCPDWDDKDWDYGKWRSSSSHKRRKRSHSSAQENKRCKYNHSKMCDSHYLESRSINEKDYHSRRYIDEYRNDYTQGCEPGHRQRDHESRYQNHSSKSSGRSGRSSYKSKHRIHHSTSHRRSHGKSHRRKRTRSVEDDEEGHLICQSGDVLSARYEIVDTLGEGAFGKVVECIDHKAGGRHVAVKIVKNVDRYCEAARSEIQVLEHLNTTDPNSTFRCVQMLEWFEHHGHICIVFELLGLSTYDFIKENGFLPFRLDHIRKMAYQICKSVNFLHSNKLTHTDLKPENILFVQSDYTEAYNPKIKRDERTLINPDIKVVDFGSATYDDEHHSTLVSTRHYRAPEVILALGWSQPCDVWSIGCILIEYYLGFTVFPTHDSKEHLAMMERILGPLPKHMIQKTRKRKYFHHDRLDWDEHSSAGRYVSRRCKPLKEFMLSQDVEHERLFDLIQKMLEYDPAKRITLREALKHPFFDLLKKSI
Chain of Dual specificity tyrosine-phosphorylation-regulated kinase 1B (Q9Y463 whole entry): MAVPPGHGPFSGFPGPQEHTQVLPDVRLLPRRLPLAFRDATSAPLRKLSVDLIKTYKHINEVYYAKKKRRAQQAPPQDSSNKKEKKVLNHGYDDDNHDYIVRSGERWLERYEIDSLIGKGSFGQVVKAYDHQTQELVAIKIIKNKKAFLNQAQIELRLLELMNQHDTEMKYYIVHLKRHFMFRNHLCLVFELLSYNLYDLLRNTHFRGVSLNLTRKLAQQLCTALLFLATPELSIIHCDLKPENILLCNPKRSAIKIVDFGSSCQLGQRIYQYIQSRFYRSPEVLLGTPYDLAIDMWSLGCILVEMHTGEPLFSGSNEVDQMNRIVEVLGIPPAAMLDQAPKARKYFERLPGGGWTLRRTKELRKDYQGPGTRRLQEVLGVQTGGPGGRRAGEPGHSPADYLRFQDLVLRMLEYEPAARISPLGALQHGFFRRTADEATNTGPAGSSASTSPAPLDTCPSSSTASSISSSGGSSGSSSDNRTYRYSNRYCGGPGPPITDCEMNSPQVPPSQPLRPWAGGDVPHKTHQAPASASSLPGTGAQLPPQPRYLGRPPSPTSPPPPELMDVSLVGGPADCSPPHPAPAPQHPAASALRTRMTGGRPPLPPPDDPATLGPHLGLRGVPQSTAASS

| SMILES | IC50 [1] [µM] | IC50 [2] [µM] | IC50 [3] [µM] | IC50 (Casein kinase I) [µM] | IC50 [4] [µM] | IC50 [5] [µM] | IC50 [6] [µM] | IC50 [7] [µM] | IC50 [8] [µM] | IC50 [9] [µM] | IC50 [10] [µM] | IC50 [11] [µM] |
| --- | --- | --- | --- | --- | --- | --- | --- | --- | --- | --- | --- | --- |
| COC[C@@H](CC(C)C)NC1=N/C(=C\c2cc3scnc3cn2)C(=O)N1 | > 10 | 6.49 | > 10 | > 10 | > 10 | > 10 | > 10 | > 10 | > 10 | – | – | – |
| COC[C@@H](CC(C)C)NC1=N/C(=C\c2ccc3ncsc3c2)C(=O)N1C1CC1 | – | 0.24 | > 10 | > 10 | 0.643 | 1.26 | 0.842 | 2.86 | 8.988 | 0.506 | – | – |
| COC[C@@H](CC(C)C)NC1=N/C(=C\c2ccc3ncsc3c2)C(=O)N1C1CCCC1 | 2.45 | 1.01 | > 10 | > 10 | 6.47 | 5.32 | > 10 | > 10 | > 10 | > 10 | > 10 | 0.774 |
